Assay results published in patent publication US20050203191A1, “1-Aminocyclohexane derivatives for the treatment of agitation and other behavioral disorders, especially those associated with alzheimer's disease” (priority 2004, published 2005).

How the values were obtained:
[1] = test system: patients with mild to moderate dementia of the Alzheimer's type; assay: MD-10: randomized, double-blind, placebo-controlled evaluation of memantine; assay type: in vivo, human; settings: MD-10, week 24, ITT LOCF
Description: MD-10: MD-10 was a randomized, double-blind, placebo-controlled evaluation of the safety and efficacy of memantine in patients with mild to moderate dementia of the Alzheimer's type. The primary endpoints for MD-10 were ADAS-cog and CIBIC-plus. Other endpoints for MD-10 included ADCS-ADL, NPI, and RUD (Resource Utilization in Dementia).
(§1) The five memantine trials were evaluated using an analysis of patient for a population having an NPI agitation subscale score of >4 ([…]) and for a population having an NPI score of <4 ([…]). For each NPI population, changes in SIB, ADAS-cog and/or ADL were calculated using the least square (LS) mean difference for memantine and placebo-treated patients. Similarly, for each NPI population, the raw mean difference between memantine and placebo was calculated for the CIBIC-plus results.
(§2) For primary efficacy measurements the comparison between memantine and placebo was performed using two-way analysis of covariance (ANCOVA) with treatment group and center as the two factors, and the baseline scores as covariate. Both the LOCF imputation approach and the OC approach are performed at the end of the trials.
(§3) For secondary efficacy measurements, the comparison between memantine and placebo was performed using two-way analysis of covariance (ANCOVA) with treatment group and center as the two main effects, and the baseline scores as covariate. Descriptive statistics were calculated by Visit. Again, all analyses were performed using both the LOCF imputation approach and the OC approach.
(§4) Results of ANCOVA were summarized using least square (LS) means for each treatment group with corresponding standard error (SE), the between-treatment (2-24 week) difference in the least square means with corresponding 95% confidence interval, and the between-treatment p-value corresponds to the SAS Type III sum of squares.
(§5) In data Tables 5-19, the Overall Memantine versus Placebo columns of studies MD-01, MD-02, MD-10 and MD-12 used an ANCOVA model with baseline total score as covariate, treatment and study center as factors for SIB, ADL or ADAS-cog; CMH test controlling for study center for CIBIC-Plus. For MZ-9605, results are based on arithmetic means and the Wilcoxon-Mann-Whitney test. The Agitation score columns/NPI/antipsychotics columns, except CIBIS-Plus, calculated the p-values and LS mean differences within the subgroups from an ANCOVA model with baseline total score as covariate, subgroup (yes/no), treatment, and treatment by subgroup interactions as factors. For CIBIS-Plus, the p-values and raw mean differences within a subgroup were calculated using the CMH test controlling for study center.
(§6) Patients in the same five trials described above were stratified into two sub-groups in a second analysis, those with an NPI total score in the top quartile (≧75%), or those more severely impaired at baseline, and those with an NPI total score <75%, or less severe impairment at baseline. Similar to as in Example 1, results were evaluated using the change in SIB (cognitive endpoint), and change in ADCS-ADL (functional endpoint), using the LS mean. The change in the CIBIC-plus (global endpoint) was assessed using the raw mean.
(§7) A sub-population of patients from the five trials, MD-01, MD-02, MD-10, MD-12, and MZ-9605, were concurrently taking antipsychotics.

[2] = humans; cited from earlier work
[3] = test system: patients with moderate-to-severe AD; assay: MD-01: 24-week trial of memantine as monotherapy; assay type: in vivo, human; settings: MD-01, week 24, ITT LOCF
Description: MD-01: MD-01 was a trial evaluating memantine as monotherapy for the treatment of patients with moderate-to-severe AD lasting for 24 weeks. About 350 patients were enrolled. Efficacy was evaluated using the Severe Impairment Battery (SIB), the Assessment of Daily Living (ADL) and the CIBIC-plus Scales.
as §1, §2, §3, §4, §5, §6, §7

[4] = NPI total score ≧=75% (top quartile)
[5] = antipsychotics usage “YES” (N = n)
[6] = antipsychotics usage “YES” (N = y)
[7] = baseline NPI agitation score <4
[8] = baseline NPI agitation score ≧=4
[9] = baseline NPI agitation score ≧=4, listed as MEM

CC12CC3CC(C)(C1)CC(N)(C3)C2 [memantine, 1-amino-3,5-dimethyl adamantane]
ADAS-cog (change) LS Mean Diff., MEM v. PLA ([1]; NPI total score <75%): −1.59 | ADAS-cog (change) mean ([1]; NPI total score <75%): −0.08 | ADCS-ADL (change) LS Mean Diff., MEM v. PLA ([1]; NPI total score <75%): 0.11 | ADCS-ADL (change) mean ([1]; NPI total score <75%): −2.67 | CIBIC-PLUS Raw Mean Diff., MEM v. PLA ([1]; NPI total score <75%): −0.32 | CIBIC-PLUS mean ([1]; NPI total score <75%): 4.16 | ADAS-cog (change) LS Mean Diff., MEM v. PLA [1, 4]: −2.53 | ADAS-cog (change) mean [1, 4]: −1.18 | ADCS-ADL (change) LS Mean Diff., MEM v. PLA [1, 4]: 0.70 | ADCS-ADL (change) mean [1, 4]: −5.04 | CIBIC-PLUS Raw Mean Diff., MEM v. PLA [1, 4]: −0.3 | CIBIC-PLUS mean [1, 4]: 4.33 | ADAS-COG (change) LS Mean Diff., MEM v. PLA (second parameter of Table 19) [1, 5]: 0.31 | ADAS-COG (change) mean (second parameter of Table 19) [1, 5]: −2.69 | ADAS-cog (change) LS Mean Diff., MEM v. PLA [1, 5]: −1.93 | ADAS-cog (change) mean [1, 5]: −0.54 | CIBIC-PLUS Raw Mean Diff., MEM v. PLA [1, 5]: −0.29 | CIBIC-PLUS mean [1, 5]: 4.18 | ADAS-COG (change) LS Mean Diff., MEM v. PLA (second parameter of Table 19) [1, 6]: −0.017 | ADAS-COG (change) mean (second parameter of Table 19) [1, 6]: −7.95 | ADAS-cog (change) LS Mean Diff., MEM v. PLA [1, 6]: −0.74 | ADAS-cog (change) mean [1, 6]: 1.42 | CIBIC-PLUS Raw Mean Diff., MEM v. PLA [1, 6]: −0.51 | CIBIC-PLUS mean [1, 6]: 4.40 | ADAS-cog (change) LS Mean Diff., MEM v. PLA [1, 7]: −1.87 | ADAS-cog (change) mean [1, 7]: −0.49 | ADCS-ADL (change) LS Mean Diff., MEM v. PLA [1, 7]: 0.65 | ADCS-ADL (change) mean [1, 7]: −3 | CIBIC-PLUS Raw Mean Diff., MEM v. PLA [1, 7]: −0.36 | CIBIC-PLUS mean [1, 7]: 4.18 | ADAS-cog (change) LS Mean Diff., MEM v. PLA [1, 8]: −1.39 | ADAS-cog (change) mean [1, 8]: 0.86 | ADCS-ADL (change) LS Mean Diff., MEM v. PLA [1, 8]: −2.66 | ADCS-ADL (change) mean [1, 8]: −5.05 | CIBIC-PLUS Raw Mean Diff., MEM v. PLA [1, 8]: no difference | CIBIC-PLUS mean [1, 8]: 4.36 | CIBIC-PLUS Raw Mean Diff., MEM v. PLA [1, 9]: 0.0 | ADAS-cog (change) LS Mean Diff., MEM v. PLA ([1]; overall): −1.90 | ADAS-cog (change) LS mean ([1]; overall): −0.80 | ADCS-ADL (change) LS Mean Diff., MEM v. PLA ([1]; overall): 0.10 | ADCS-ADL (change) LS mean ([1]; overall): −2.90 | CIBIC-PLUS LS mean ([1]; overall): 4.20 | CIBIC-PLUS Raw Mean Diff., MEM v. PLA ([1]; overall): −0.30 | therapeutically effective circulating concentration [2]: 1 µM | ADCS-ADL (change) LS Mean Diff., MEM v. PLA ([3]; NPI total score <75%): 0.87 | ADCS-ADL (change) mean ([3]; NPI total score <75%): −1.1 | CIBIC-PLUS Raw Mean Diff., MEM v. PLA ([3]; NPI total score <75%): −0.2 | CIBIC-PLUS mean ([3]; NPI total score <75%): 4.3 | SIB (change) LS Mean Diff., MEM v. PLA ([3]; NPI total score <75%): 0.3 | SIB (change) mean ([3]; NPI total score <75%): −1.2 | ADCS-ADL (change) LS Mean Diff., MEM v. PLA [3, 4]: −0.05 | ADCS-ADL (change) mean [3, 4]: −2.3 | CIBIC-PLUS Raw Mean Diff., MEM v. PLA [3, 4]: −0.2 | CIBIC-PLUS mean [3, 4]: 4.5 | SIB (change) LS Mean Diff., MEM v. PLA [3, 4]: 3.5 | SIB (change) mean [3, 4]: −2.8 | ADCS-ADL (change) LS Mean Diff., MEM v. PLA [3, 5]: 0.8 | ADCS-ADL (change) mean [3, 5]: −0.8 | CIBIC-PLUS Raw Mean Diff., MEM v. PLA [3, 5]: −0.26 | CIBIC-PLUS mean [3, 5]: 4.26 | SIB (change) LS Mean Diff., MEM v. PLA [3, 5]: 1.7 | SIB (change) mean [3, 5]: −0.5 | ADCS-ADL (change) LS Mean Diff., MEM v. PLA [3, 6]: −0.15 | ADCS-ADL (change) mean [3, 6]: −3.8 | CIBIC-PLUS Raw Mean Diff., MEM v. PLA [3, 6]: −0.1 | CIBIC-PLUS mean [3, 6]: 4.63 | SIB (change) LS Mean Diff., MEM v. PLA [3, 6]: −1.9 | SIB (change) mean [3, 6]: −6.2 | ADCS-ADL (change) LS Mean Diff., MEM v. PLA [3, 7]: 0.36 | ADCS-ADL (change) mean [3, 7]: −1.3 | CIBIC-PLUS Raw Mean Diff., MEM v. PLA [3, 7]: −0.2 | CIBIC-PLUS mean [3, 7]: 4.3 | SIB (change) LS Mean Diff., MEM v. PLA [3, 7]: −0.15 | SIB (change) mean [3, 7]: −1.9 | ADCS-ADL (change) LS Mean Diff., MEM v. PLA [3, 8]: 1.18 | ADCS-ADL (change) mean [3, 8]: −3.2 | CIBIC-PLUS Raw Mean Diff., MEM v. PLA [3, 8]: 0 | CIBIC-PLUS mean [3, 8]: 4.7 | SIB (change) LS Mean Diff., MEM v. PLA [3, 8]: 4.65 | SIB (change) mean [3, 8]: −1.0 | ADCS-ADL (change) mean [3, 9]: −2.2 | CIBIC-PLUS Raw Mean Diff., MEM v. PLA [3, 9]: 0.0 | ADCS-ADL (change) LS Mean Diff., MEM v. PLA ([3]; overall): 0.70 | ADCS-ADL (change) LS mean ([3]; overall): −2.00 | CIBIC-PLUS LS mean ([3]; overall): 4.30 | CIBIC-PLUS Raw Mean Diff., MEM v. PLA ([3]; overall): −0.30 | SIB (change) LS Mean Diff., MEM v. PLA ([3]; overall): 0.60 | SIB (change) LS mean ([3]; overall): −2.00
